Reference: paper PMC2063322, “Phase I trial and pharmacokinetics of the tubulin inhibitor 1069C85--a synthetic agent binding at the colchicine site designed to overcome multidrug resistance” (British Journal of Cancer, 1997)
Several values for one entry are separate records, joined by “and”; a condition that tells them apart may be missing. Equal entries are not always repeated. Where two headings read alike, the source gives them in different places.

Legend:
mice = system: mice; design: method as in data on file, Cancer Research Campaign, 1993; details: ref data on file, Cancer Research Campaign, 1993, cited from earlier work
[1] = Phase I toxicity graded by Common Toxicity Criteria
Description: (§1) British Joumal of Cancer (1997) 75(4), 608-613 ? […] A phase I study was performed using a single oral dose every 3 weeks, administered as a suspension reconstituted in 0.1% Tween 80 and 0.9% saline. The starting dose was 2.8 mg m-2, and dose doubling was permitted until the area under curve (AUC) was ?40% of that at the mouse LD10; thereafter, a modified Fibonacci scheme was used. […] Keywords: tubulin; multidrug resistance; neurotoxicity The tubulin-binding agent 1069C85 was developed from a struc- ture activity investigation of tubulin inhibitors binding at the colchicine site on tubulin. […] No studies were performed using human tumour xenografts. […] METHODS Formulation and drug administration A formulation was developed at the Cancer Research Campaign Formulation Unit. The drug was dispensed into vials as a dry powder and reconstituted as a fine suspension by administration of 0.9% saline containing 0.1% Tween 80 (polysorbate) with vigorous mixing. Immediately before oral administration, the drug suspension was mixed with orange juice both to disguise any possible unpleasant taste and to help ensure complete ingestion.

rats = system: rats; design: method as in data on file, Cancer Research Campaign, 1993; details: 14.3 mg m-2 p.o. (one-tenth mouse LD10), daily x 5 for 4 weeks, rat; ref data on file, Cancer Research Campaign, 1993; cited from earlier work
[2] = Tumour response assessment in phase I patients; type: in vivo, human; details: 39 patients, 2.8-200 mg m-2
Description: as §1

[3] = Phase I pharmacokinetics: plasma 1069C85 by HPLC after single oral dose; design: Cmax of the patient experiencing grade 3 neurotoxicity: unit not given beside the values
Description: as §1

[4] = design: method as in Raynaud et al, 1994; details: mouse, estimated; ref Raynaud et al, 1994; cited from earlier work
[5] = Stability of 1069C85 in orange juice; details: suspension mixed with orange juice
Description: as §1

murine tumours = details: cited from earlier work
human tumour cell lines = details: ref Raynaud et al, 1994; cited from earlier work
dogs = system: dogs; design: method as in Data on file, Glaxo/Wellcome, 1990; details: 20 mg m-2; ref Data on file, Glaxo/Wellcome, 1990; cited from earlier work
[6] = cited from earlier work
Aqueous solubility = type: physicochemical
[7] = design: method as in data on file Glaxo/Wellcome, 1990; details: monkey, p.o.; ref data on file Glaxo/Wellcome, 1990; cited from earlier work
rodents = system: rodents; design: method as in data on file, Cancer Research Campaign, 1993; details: ref data on file, Cancer Research Campaign, 1993; cited from earlier work
[8] = dog, cited from earlier work
[9] = system: murine tumour cell lines with acquired resistance to natural anti-cancer products; details: acquired resistance to a variety of natural anti-cancer products, ref Hodgson et al, 1992, 1994; cited from earlier work
mammalian tubulin = system: mammalian tubulin; design: method as in Hodgson et al 1992; Hodgson, 1994; details: at concentrations cytotoxic to P388 cells, ref Hodgson et al 1992, 1994; cited from earlier work
[10] = Protein binding in human plasma (Amicon membrane centrifugation); details: 25 C
Description: as §1

[11] = 1995, cited from earlier work
[12] = design: method as in van Asperen et al (1996); details: ref van Asperen et al (1996); cited from earlier work
[13] = grade 3 patient, 200 mg m-2 non-micronized
[14] = grade 4 neurotoxicity patient, 100 mg m-2 micronized
[15] = patient no. 39, 50 mg m-2 micronized
[16] = single patient, 200 mg m-2 non-micronized, visual disturbance, flashing lights
[17] = micronized, 25 mg m-2, mean (SD), 5 patients
[18] = micronized, 35.8 mg m-2, 1 patient
[19] = micronized, 50 mg m-2, mean, 2 patients
[20] = micronized, 100 mg m-2, mean, 2 patients previously treated at 200 mg m-2 standard formulation
[21] = non-micronized, 2.8 mg m-2, mean (SD), 3 patients
[22] = non-micronized, 5.6 mg m-2, mean, 2 patients
[23] = non-micronized, 11.2 mg m-2, mean (SD), 4 patients
[24] = non-micronized, 22.4 mg m-2, mean (SD), 3 patients
[25] = non-micronized, 35.8 mg m-2, mean (SD), 4 patients
[26] = non-micronized, 50 mg m-2, mean, 2 patients
[27] = non-micronized, 100 mg m-2, mean (SD), 4 patients
[28] = non-micronized, 200 mg m-2, mean (SD), 4 patients
[29] = single patient (no. 39), 50 mg m-2 micronized
[30] = single patient, 100 mg m-2 micronized, ataxia, confusion, hallucinations, coma
[31] = single patient, 100 mg m-2 micronized, vivid dreams, disturbed sleep
[32] = single patient, 200 mg m-2 non-micronized, ataxia, confusion, disorientation

In the case of `COC(=O)Nc1cn2nc(OCc3cc(OC)c(OC)c(OC)c3)ccc2n1` [1069C85], the “LD10, single dose intraperitoneally” value (mice; mice, i.p.) is listed as 39.6 mg m-2, the “LD10, single oral dose” value (mice; mice, p.o.) is listed as 142.2 mg m-2 and the “repeat dose that proved to be fatal” value (mice; mouse, i.p., daily x 5 for 4 weeks) is listed as “above 3.9 mg m-2”. The “incidence of central neurotoxicity (mainly mild sedation)” value ([1]; 200 mg m-2, non-micronized) was “four of five”, the “duration of neurotoxic symptoms” value [1, 13] was 7 days and the “onset of neurotoxic symptoms after dosing” value [1, 13] was 48 h. For the same compound, the alopecia grade [1, 14] was 2, the neutropenia grade [1, 14] was 3 and the onset of neurotoxicity ([1]; grade 4 patient, 100 mg m-2 micronized) was “approximately 48 h”. For the same compound, the “severe central neurotoxicity, maximum grade” value ([1]; micronized formulation, doses of 50-100 mg m-2) was ≤ 4, the toxicities observed ([1]; micronized, 25 or 35.8 mg m-2) was “No significant toxicities” and the “nausea and vomiting grade (only toxicities observed)” value ([1]; non-micronized, 2.8 to 22.4 mg m-2) was 1-2. The antiproliferative toxicities ([1]; original formulation, 2.8-200 mg m-2) was “no antiproliferative toxicities”, the “day of death attributed to 1069C85” value [1, 15] was 8 days and the thrombocytopenia grade [1, 15] was 3. The “vomiting and diarrhoea grade” value [1, 15] was 2, the neutropenia grade ([1]; patient no. 39, 50 mg m-2 micronized, onset day 6) was 4 and the “Cmax at which severe neurotoxicity was not observed” value ([1]; patients) was < 100 ng ml'. For the same compound, the “peak plasma concentration above which CNS neurotoxicity was severe” value ([1]; patients) was “above 100 tg 1-'”, the “Neurotoxicity (CTC grade)” value ([1]; single patient (no. 39), 50 mg m-2 micronized, agitation, confusion and visual hallucinations, days 2-6) was 3 and the “Neurotoxicity (CTC grade)” value ([1]; single patient, 100 mg m-2 micronized, ataxia, confusion, hallucinations, coma, days 2-7) was 4. For the same compound, the “Neurotoxicity (CTC grade)” value ([1]; single patient, 100 mg m-2 micronized, vivid dreams, disturbed sleep, days 3-6) was 1, the “Neurotoxicity (CTC grade)” value ([1]; single patient, 200 mg m-2 non-micronized, ataxia, confusion, disorientation, days 2-6) was 3 and the “Neurotoxicity (CTC grade)” value [1, 16] was 1. For the same compound, the “animals in which repeat dosing proved fatal” value (rats) was “seven out of ten”, the objective responses [2] was “no objective responses” and the “Cmax of the patient experiencing grade 3 neurotoxicity” value ([3]; 200 mg m-2, non-micronized) was 159. The AUC [3, 17] was 1061.8 (?269.1) gg 1-1 h-1, the Cmax [3, 17] was 58.6 (?19.5) hg 1-' and the Tmax [3, 17] was 9.8 (?3.2) h. For the same compound, the t1/2 [3, 17] was 38.9 (?36.9) h, the AUC [3, 18] was 1262.3 gg 1-1 h-1 and the Cmax [3, 18] was 70.7 hg 1-'. The Tmax [3, 18] was 6.3 h, the t1/2 [3, 18] was 16.3 h and the AUC [3, 19] was 3786.9 gg 1-1 h-1. For the same compound, the Cmax [3, 19] was 198.9 hg 1-', the Tmax [3, 19] was 10.6 h and the t1/2 [3, 19] was 24 h. It also gave an AUC [3, 20] of 15011.7 gg 1-1 h-1, a Cmax [3, 20] of 292.3 hg 1-' and a Tmax [3, 20] of 6.1 h. For the same compound, the t1/2 [3, 20] was 24.7 h, the “time after dosing at which drug was still detectable in the cerebrospinal fluid” value ([3]; most severely affected patient, 100 mg m-2 micronized) was 8 days and 7 days and the “terminal half-life (range between patients)” value ([3]; non-micronized formulation, one-compartment model) was 7 to 107 h. The Cmax [3, 21] was 7.3 (?3.4) hg 1-', the Tmax [3, 21] was 10 (?7.1) h and the t1/2 [3, 21] was 29 (+22) h. The AUC ([3]; non-micronized, 2.8 mg m-2 single oral dose, mean (SD), 3 patients, AUC to 24 h) was 69.9 (?30.2) gg 1-1 h-1, the AUC [3, 22] was 209.7 gg 1-1 h-1 and the Cmax [3, 22] was 13 hg 1-'. For the same compound, the Tmax [3, 22] was 9.5 h, the t1/2 [3, 22] was 39.5 h and the AUC [3, 23] was 371.5 (?178.7) gg 1-1 h-1. The Cmax [3, 23] was 21.7 (?11.3) hg 1-', the Tmax [3, 23] was 5.3 (?1.2) h and the t1/2 [3, 23] was 23.2 (?6.9) h. The AUC [3, 24] was 476.4 (?206.8) gg 1-1 h-1, the Cmax [3, 24] was 25.9 (?11.4) hg 1-' and the Tmax [3, 24] was 7.6 (?1.9) h. The t1/2 [3, 24] was 35.7 (?15.1) h, the AUC [3, 25] was 507.5 (?153.6) gg 1-1 h-1 and the Cmax [3, 25] was 33 (?13.9) hg 1-'. For the same compound, the Tmax [3, 25] was 7.8 (?3.4) h, the t1/2 [3, 25] was 22.9 (?19.5) h and the AUC [3, 26] was 423.3 gg 1-1 h-1. It also gave a Cmax [3, 26] of 22 hg 1-', a Tmax [3, 26] of 7.2 h and a t1/2 [3, 26] of 73.5 h. The AUC [3, 27] was 844.7 (?314.7) gg 1-1 h-1, the Cmax [3, 27] was 48.5 (?25) hg 1-' and the Tmax [3, 27] was 4.8 (?1.1) h. The t1/2 [3, 27] was 23 (?4.3) h, the AUC [3, 28] was 3011 (?1771.4) gg 1-1 h-1 and the Cmax [3, 28] was 99.8 (?36.9) hg 1-'. For the same compound, the Tmax [3, 28] was 8.8 (?1.9) h, the t1/2 [3, 28] was 18.2 (?3) h and the “terminal elimination half-life (range)” value ([3]; original formulation, single oral dose every 3 weeks, patients) was 18 to 73.5 h. For the same compound, the AUC [3, 29] was 16.4 ItM h, the Cmax [3, 29] was 327 .g l-i and the AUC [3, 30] was 23.4 ItM h. The Cmax [3, 30] was 495 .g l-i, the AUC [3, 31] was 53.9 ItM h and the Cmax [3, 31] was 90 .g l-i. The AUC [3, 32] was 15.2 ItM h, the Cmax [3, 32] was 159 .g l-i and the AUC [3, 16] was 5.1 ItM h. For the same compound, the Cmax [3, 16] was 100 .g l-i, the Protein binding [4] was 85-99% and the “effect of orange juice on the stability” value [5] was “no effect”. The “activity of the 20 mg kg-1 oral dose” value (murine tumours; 20 mg kg-1, oral, mouse) was “active dose”, the “anti-tumour activity in vivo” value (murine tumours; oral route, a variety of murine tumours) was “confirmed” and the “activity in resistant human tumour cell lines” value (human tumour cell lines) was “confirmed these findings”. The “toxicity observed in dogs” value (dogs) was “fatal toxicity”, the “increase of bioavailability with micronized drug” value ([6]; mice, preclinical, ref F I Raynaud, personal communication) was “two-threefold” and the oral bioavailability ([6]; mouse, i.v. vehicle DMSO/saline, ref Raynaud et al, 1994) was 20%. For the same compound, the “plasma elimination half-life following oral administration” value ([6]; mouse, p.o., ref Raynaud et al, 1994) was ~8 h, the aqueous solubility (Aqueous solubility) was “extremely poor” and the “plasma elimination half-life following oral administration” value [7] was ~2 h. For the same compound, the dose limiting toxicities (rodents) was “myelosuppression and gastrointestinal damage”, the oral bioavailability ([8]; i.v. formulation dimethyl isosorbide, ref data on file, Glaxo/Wellcome 1990) was 7% and the “plasma elimination half-life following oral administration” value ([8]; p.o., ref Data on file 1990) was “approximately 16 h”. The “activity against resistant murine tumour cell lines” value [9] was “retained activity”, the “inhibition of tubulin polymerization” value (mammalian tubulin) was “potent inhibition” and the Protein binding [10] was > 99%.
In the case of `CCOC(=O)Nc1cc2c(c(N)n1)N=C(c1ccccc1)[C@H](C)N2` [CI-980], the dose limiting toxicity ([11]; 24 h-infusion schedule, ataxia, confusion and coma, ref Sklarin et al) is listed as “dose limiting central neurotoxicity” and the dose limiting toxicity ([11]; 72 h-infusion, ref Rowinsky et al) is listed as “dose limiting myelosuppression”.
In the case of `CC[C@]1(O)C[C@@H]2CN(CCc3c([nH]c4ccccc34)[C@@](C(=O)OC)(c3cc4c(cc3OC)N(C)[C@H]3[C@@](O)(C(=O)OC)[C@H](OC(C)=O)[C@]5(CC)C=CCN6CC[C@]43[C@@H]65)C2)C1` [vinblastine], the “accumulation of drug in the brains of P-glycoprotein-deficient versus wild-type mice” value [12] is given as “substantially greater accumulation”.
